test system: NBD1/3D; assay: Aggregation analysis using differential static light scattering (DSLS), NBD1 thermal stability; assay type: binding, Human; conditions: ΔTagg versus DMSO control; compound at 100 μM
In short: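 Thermal stabilisation reported as ΔTagg, i.e. aggregation temperature relative to averaged DMSO wells. Tagg came from the inflection of differential static light scattering imaged 25–70 °C while NBD1 (0.2 mg/ml, Tris pH 7.6 buffer containing ATP, MgCl2, DTT, glycerol) was ramped 1 °C/min.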

Structure (SMILES) | DSLS NBD1/3D Human Stability delta-T (° C.) @ 100 (μM)
CC(c1cn(C)c(-c2cc(Oc3c(F)cc4[nH]ccc4c3F)ccc2F)n1)c1cccc(CCC(=O)O)c1F (single isomer, unassigned) [Example 278A, 3-(3-(1-(2-(5-((4,6-difluoro-1H-indol-5-yl)oxy)-2-fluorophenyl)-1-methyl-1H-imidazol-4-yl)ethyl)-2-fluorophenyl)propanoic acid] | C (C: ≤5° C.)
Cc1c(Oc2ccc(F)c(-c3ncc(C(C)(C)c4cccc(CCC(=O)O)c4)[nH]3)c2)c(F)cc2[nH]ccc12 [Example 144, 3-(3-(2-(2-(2-fluoro-5-((6-fluoro-4-methyl-1H-indol-5-yl)oxy)phenyl)-1H-imidazol-5-yl)propan-2-yl)phenyl)propanoic acid] | B (B: 5-10° C.)
Cc1c(Oc2ccc(F)c(-c3ncc(Cc4cccc(CCC(=O)O)c4)[nH]3)c2)c(F)cc2[nH]ccc12 [Example 115, 3-(3-((2-(2-fluoro-5-((6-fluoro-4-methyl-1H-indol-5-yl)oxy)phenyl)-1H-imidazol-5-yl)methyl)phenyl)propanoic acid] | B (B: 5-10° C.)
CC(O)(c1cccc(CCC(=O)O)c1)c1cnc(-c2cccc(Oc3c(F)cc4[nH]ccc4c3S(=O)(=O)CC(F)F)c2)[nH]1 (stereo not shown) [Example 28, 3-(3-(1-(2-(3-((4-((2,2-difluoroethyl)sulfonyl)-6-fluoro-1H-indol-5-yl)oxy)phenyl)-1H-imidazol-5-yl)-1-hydroxyethyl)phenyl)propanoic acid] | A (A: T ≥ 10° C.)
CC(O)(c1cccc(CCC(=O)O)c1)c1c[nH]c(-c2cc(Oc3c(F)cc4[nH]ccc4c3C3CC3)ccc2F)n1 (stereo not shown) [Example 193, 3-(3-(1-(2-(5-((4-cyclopropyl-6-fluoro-1H-indol-5-yl)oxy)-2-fluorophenyl)-1H-imidazol-4-yl)-1-hydroxyethyl)phenyl) propanoic acid] | B (B: 5-10° C.)
COc1cc(F)c(-c2ncc(C(C)(O)c3cccc(CCC(=O)O)c3)[nH]2)cc1Oc1c(F)cc2[nH]ccc2c1C (stereo not shown) [Example 281, 3-(3-(1-(2-(2-fluoro-5-((6-fluoro-4-methyl-1H-indol-5-yl)oxy)-4-methoxyphenyl)-1H-imidazol-5-yl)-1-hydroxyethyl)phenyl) propanoic acid] | B (B: 5-10° C.)
Cc1c(Oc2ccc(F)c(-c3ncc(C4(c5cccc(CCC(=O)O)c5)CCOC(C)C4)[nH]3)c2)c(F)cc2[nH]ccc12 (single isomer, unassigned) [Example 151, 3-(3-(4-(2-(2-fluoro-5-((6-fluoro-4-methyl-1H-indol-5-yl)oxy)phenyl)-1H-imidazol-5-yl)-2-methyltetrahydro-2H-pyran-4-yl)phenyl)propanoic acid] | B (B: 5-10° C.)
O=C(O)CCc1cccc(Cc2nnc(-c3cc(Oc4c(F)cc5[nH]ccc5c4Cl)ccc3F)[nH]2)c1 [Example 239, 3-(3-((5-(5-((4-chloro-6-fluoro-1H-indol-5-yl)oxy)-2-fluorophenyl)-4H-1,2,4-triazol-3-yl)methyl)phenyl) propanoic acid] | C (C: ≤5° C.)
O=P(O)(O)OCCCc1cccc(Cc2cnc(-c3cc(Oc4c(F)cc5[nH]ccc5c4F)ccc3F)[nH]2)c1F [Example 269, 3-(3-((2-(5-((4,6-Difluoro-1H-indol-5-yl)oxy)-2-fluorophenyl)-1H-imidazol-5-yl)methyl)-2-fluorophenyl)propyl dihydrogen phosphate] | C (C: ≤5° C.)
O=C(O)CCc1cc(F)cc(C(O)c2c[nH]c(-c3cc(Oc4c(F)cc5[nH]ccc5c4F)ccc3F)n2)c1 (stereo not shown) [Example 178, 3-(3-((2-(5-((4,6-difluoro-1H-indol-5-yl)oxy)-2-fluorophenyl)-1H-imidazol-4-yl)(hydroxy)methyl)-5-fluorophenyl)propanoic acid] | B (B: 5-10° C.)
Cc1c(Oc2cccc(-c3nn(Cc4cccc(CCC(=O)O)c4)cc3F)c2)c(F)cc2[nH]ccc12 [Example 19, 3-(3-((4-Fluoro-3-(3-((6-fluoro-4-methyl-1H-indol-5-yl)oxy)phenyl)-1H-pyrazol-1-yl)methyl)phenyl)propanoic acid] | C (C: ≤5° C.)
Cc1c(Oc2ccc(F)c(-c3ncc(C(C)(O)c4cccc(CCC(=O)O)c4)[nH]3)c2)c(F)c(F)c2[nH]ccc12 (stereo not shown) [Example 204, 3-(3-(1-(2-(5-((6,7-difluoro-4-methyl-1H-indol-5-yl)oxy)-2-fluorophenyl)-1H-imidazol-5-yl)-1-hydroxyethyl)phenyl) propanoic acid] | B (B: 5-10° C.)
Cc1c(Oc2ccc(F)c(-c3nc(C4(c5cccc(CCC(=O)O)c5)CCCCC4)c[nH]3)c2)c(F)cc2[nH]ccc12 [Example 147, 3-(3-(1-(2-(2-fluoro-5-((6-fluoro-4-methyl-1H-indol-5-yl)oxy)phenyl)-1H-imidazol-4-yl)cyclohexyl)phenyl)propanoic acid] | B (B: 5-10° C.)
CC(C#N)(c1cccc(CCC(=O)O)c1)c1cnc(-c2cc(Oc3c(F)c(F)c4[nH]ccc4c3S(C)(=O)=O)ccc2F)[nH]1 (stereo not shown) [Example 49, 3-(3-(1-Cyano-1-(2-(5-((6,7-difluoro-4-(methylsulfonyl)-1H-indol-5-yl)oxy)-2-fluorophenyl)-1H-imidazol-5-yl)ethyl)phenyl)propanoic acid] | A (A: T ≥ 10° C.)
O=C(O)CCc1cccc(Cc2c[nH]c(-c3cc(Oc4c(F)cc5[nH]ccc5c4Cl)ccc3F)n2)c1F [Example 111, 3-(3-((2-(5-((4-chloro-6-fluoro-1H-indol-5-yl)oxy)-2-fluorophenyl)-1H-imidazol-4-yl)methyl)-2-fluorophenyl)propanoic acid] | B (B: 5-10° C.)
COC(=O)CCc1cccc(C(C)(O)c2cnc(-c3cccc(Oc4ccc5[nH]ccc5c4CNC(C)=O)c3)[nH]2)c1 (stereo not shown) [Example 264, Methyl 3-(3-(1-(2-(3-((4-(acetamidomethyl)-1H-indol-5-yl)oxy)phenyl)-1H-imidazol-5-yl)-1-hydroxyethyl)phenyl)propanoate] | A (A: T ≥ 10° C.)
CC(CC(=O)O)c1cccc([C@H](O)c2cnc(-c3cccc(Oc4c(F)cc5[nH]ccc5c4F)c3)[nH]2)c1 (stereo partly drawn) [Example 182, 3-(3-((S)-(2-(3-((4,6-Difluoro-1H-indol-5-yl)oxy)phenyl)-1H-imidazol-5-yl)(hydroxy)methyl)phenyl)butanoic acid] | B (B: 5-10° C.)
CCCCC(O)(c1cccc(CCC(=O)O)c1)c1c[nH]c(-c2cc(Oc3c(F)cc4[nH]ccc4c3C)ccc2F)n1 (stereo not shown) [Example 226, 3-(3-(1-(2-(2-fluoro-5-((6-fluoro-4-methyl-1H-indol-5-yl)oxy)phenyl)-1H-imidazol-4-yl)-1-hydroxypentyl)phenyl) propanoic acid] | B (B: 5-10° C.)
CC(O)(c1cccc(CCC(=O)O)c1)c1c[nH]c(-c2cc(Oc3c(F)cc4[nH]ccc4c3CC(F)F)ccc2F)n1 (stereo not shown) [Example 188, 3-(3-(1-(2-(5-((4-(2,2-difluoroethyl)-6-fluoro-1H-indol-5-yl)oxy)-2-fluorophenyl)-1H-imidazol-4-yl)-1-hydroxyethyl)phenyl) propanoic acid] | B (B: 5-10° C.)
O=C(O)CCc1cccc(C2(c3cnc(-c4cc(Oc5c(F)cc6[nH]ccc6c5F)ccc4F)[nH]3)CC2)c1 [Example 143, 3-(3-(1-(2-(5-((4,6-difluoro-1H-indol-5-yl)oxy)-2-fluorophenyl)-1H-imidazol-5-yl)cyclopropyl)phenyl)propanoic acid] | B (B: 5-10° C.)
Cc1c(Oc2ccc(F)c(-c3nnc(Cc4cccc(CCC(=O)O)c4)[nH]3)c2)c(F)cc2[nH]ccc12 [Example 238, 3-(3-((5-(2-Fluoro-5-((6-fluoro-4-methyl-1H-indol-5-yl)oxy)phenyl)-4H-1,2,4-triazol-3-yl)methyl)phenyl)propanoic acid] | B (B: 5-10° C.)
Cc1c(Oc2ccc(F)c(-c3ccn(Cc4cnc(CCC(=O)O)s4)n3)c2)c(F)cc2[nH]ccc12 [Example 18, 3-(5-((3-(2-Fluoro-5-((6-fluoro-4-methyl-1H-indol-5-yl)oxy)phenyl)-1H-pyrazol-1-yl)methyl)thiazol-2-yl)propanoic acid] | C (C: ≤5° C.)
Cc1c(Oc2ccc(F)c(-c3ncc(C4(c5cccc(CCC(=O)O)c5)OCC(C)(C)CO4)[nH]3)c2)c(F)cc2[nH]ccc12 [Example 230, 3-(3-(2-(2-(2-fluoro-5-((6-fluoro-4-methyl-1H-indol-5-yl)oxy)phenyl)-1H-imidazol-5-yl)-5,5-dimethyl-1,3-dioxan-2-yl)phenyl)propanoic acid] | A (A: T ≥ 10° C.)
C=Cc1c(Oc2cccc(-c3ncc(C(O)c4cccc(CCC(=O)O)c4)[nH]3)c2)ccc2[nH]ccc12 (stereo not shown) [Example 174, 3-(3-(hydroxy(2-(3-((4-vinyl-1H-indol-5-yl)oxy)phenyl)-1H-imidazol-5-yl)methyl)phenyl)propanoic acid] | B (B: 5-10° C.)
COC(=O)CCc1cccc(Cn2ccc(-c3cccc(Oc4ccc5[nH]ccc5c4CO)c3)n2)c1 [Example 8, Methyl 3-(3-((3-(3-((4-(hydroxymethyl)-1H-indol-5-yl)oxy)phenyl)-1H-pyrazol-1-yl)methyl)phenyl)propanoate] | C (C: ≤5° C.)
